Data published in article PMC6680932, “Structure–Antioxidant–Antiproliferative Activity Relationships of Natural C7 and C7–C8 Hydroxylated Flavones and Flavanones” (Antioxidants, 2019).

Assay: FRAP (ferric ion reducing antioxidant power) assay
Conditions: 10 min, 593 nm; mean ± SD
Protocol: The antioxidant capacity of flavonoids was measured in three separate tests: ABTS, DPPH, and ferric ion reducing antioxidant power (FRAP) assays (ABTS, DPPH, and FRAP reagents from Sigma-Aldrich). All tested compounds were dissolved in DMSO. All determinations were performed in triplicate. Standard curves were prepared for all assays using different concentrations of Trolox (6-hydroxy-2,5,7,8-tetramethylchroman-2-carboxylic acid) (Sigma-Aldrich). Trolox is a water-soluble analogue of vitamin E with high antioxidant activity, commonly used as a control and a reference in studies of antioxidant activity. The results were expressed as the equivalent of μmol Trolox per μmol of the test compound. The absorbance was measured using a UV-2401 PC spectrophotometer (Shimadzu, Kyoto, Japan). Concentrations of the tested samples were in the range from 50 µg/mL to 10 mg/mL.
The FRAP method is based on measuring the ability of antioxidants to reduce ferric 2,4,6-tris(2-pyridyl)-1,3,5-triazine [Fe(III)-TPTZ] in the blue colored ferrous form, which absorbs light at λ = 593 nm. The Fe(III)-TPTZ reagent was prepared as a mixture of acetate buffer (pH 3.6), 10 mM TPTZ in 40 mM HCl, and 20 mM FeCl3 in the ratio of 10:1:1 (v/v/v). The FRAP reagent was freshly prepared before each experiment. The samples (0.1 mL) were mixed in polystyrene cuvettes with 3 mL of ferric complex and 0.9 mL of distilled water. The absorbance was measured after 10 min at λ = 593 nm.

Which “TEAC FRAP” value does the source give for `O=c1cc(-c2ccc(O)cc2)oc2c(O)c(O)cc(O)c12` [Compound 10, 8-hydroxyapigenin] here?
The value was 7.824 ± 0.657 µmol trolox per µmol of tested.
